How the values were obtained:
Format in all cases: in vivo, nude mice (Balb/c nu/nu)
[1] = Tissue concentrations by ICP-AES after 0.1 mmol/kg i.v. in nude mice with subcutaneously implanted colon cancers (HT29, WiDr)
Procedure: (§1) a) 9 nude mice (Balb/c nu/nu) with subcutaneously implanted colon cancers (HT29, WiDr) were each administered by i.v. 0.1 mmol/kg of the mesoporphyrin derivative of example 1b (10 mmol/l dissolved in bidistilled water, pH 7.2, 37° C.). After 0.5, 3 and 24 hours the animals were killed and dissected. The tissue concentrations were determined after corresponding working-up (HNO3 conc.) by ICP-AES and calculated for % of the administered dose per gram of tissue net weight.
e) 9 nude mice (Balb/c nu/nu) with subcutaneously implanted colon cancers (HT29 and WiDr) were each administered by i.v. 0.1 mmol/kg of the deuteroporphyrin derivative of the compound according to example 1c (10 mmol/l dissolved in bidistilled water, pH 7.2, 37° C.). After 0.5, 3 and 24 hours, the animals were killed and dissected. The tissue concentrations were determined after corresponding working-up (HNO3 conc.) by ICP-AES and calculated for % of the administered dose per gram of tissue net weight. Moreover, tissue relaxation times T1 and T2 were determined (Bruker minispec pc 120).
as §1, with “9” for “a) 9”, “8e” for “1b”, “hours,” for “hours”
as §1, with “9” for “a) 9”, “0.1.” for “0.1”, “16f” for “1b”, “0.5 and” for “0.5,”, “3” for “3 and 24”
as §1, with “9” for “a) 9”, “18d” for “1b”, “0.5 and” for “0.5,”, “hours,” for “and 24 hours”
as §1, with “9” for “a) 9”, “19e” for “1b”, “hours,” for “hours”

[2] = test system: HT29 and WiDr colon cancers; experiment: Enhancement (signal intensity change, NMR imaging) in tissues with HT29/WiDr tumors, Example 22 Table 2
[3] = test system: HT29 and WiDr colon cancer; experiment: Signal intensity change in tissues of tumor-bearing (HT29 and WiDr colon cancer) nude mice, example 2c, 0.05 mmol/kg; details: 0.05 mmol/kg i.v.; for enhancement, HT29 / enhancement, Kidneys / enhancement, Liver / enhancement, Muscle / enhancement, WiDr: time 0 = 100
Procedure: On a Bruker Biospec nuclear spin tomograph (2.35 Tesla), the signal intensity change in various tissues of tumor-bearing (HT29 and WiDr colon cancer) nude mice (Balb/c nu/nu) was studied after i.v. administration of 0.05 mmol/kg of the compound according to example 2c (10 mmol/l, pH 7.2; 37° C. in bidistilled water). The measurement takes place with a multi slice single echo sequence (MSSE). Imaging parameters: TR: 400 ms, TE: 30 ms, layer thickness: 4 mm, number of averages: 4/slice, matrix 256^2. After a preliminary image, 0.05 mmol/kg of the substance was administered and the signal intensity change (relative to an internal standard) was studied 5, 30, 60, 120 and 180 minutes

[4] = Tissue concentrations by ICP-AES after 0.1 mmol/kg i.v. in nude mice with subcutaneously implanted colon cancers (HT29, WiDr); details: 2 hours p.i. (so in the source)

13,17-Bis-(15-carboxylato-6-oxo-8,11,14-tris-(carboxylatomethyl)-5,8,11,14-tetraazapentadecyl]-3,8-diethyl-2,7,12,18-tetramethylporphyrin, digadolinium complex, disodium salt [Example 19e]
decrease of tissue concentration except liver, relative to 0.5 hour p.i. ([1]; within 24 hours): 5-20 factor

N,N'-Bis[9-carboxylato-2,5-bis(carboxylatomethyl)-8-(ethoxycarboxymethyl-2,5,8-triazanonyl-carbamoyl]-mesoporphyrin-IX-13,17-diamide, digadolinium complex [Example 1b]
enhancement, HT29 ([2]; 5 min): 1.36
enhancement, Kidneys ([2]; 5 min): 2.89
enhancement, Liver ([2]; 5 min): 1.43
enhancement, Muscle ([2]; 5 min): 1.41
enhancement, WiDr ([2]; 5 min): 1.16
signal intensity change, liver tissue ([2]; 5 minutes p.i.): marked signal intensity increase
enhancement, HT29 ([2]; 15 min): 1.49
enhancement, Kidneys ([2]; 15 min): 2.70
enhancement, Liver ([2]; 15 min): 1.43
enhancement, Muscle ([2]; 15 min): 1.41
enhancement, WiDr ([2]; 15 min): 1.16
enhancement, HT29 ([2]; 30 min): 1.54
enhancement, Kidneys ([2]; 30 min): 2.65
enhancement, Liver ([2]; 30 min): 1.40
enhancement, Muscle ([2]; 30 min): 1.39
enhancement, WiDr ([2]; 30 min): 1.18
enhancement, HT29 ([2]; 45 min): 1.55
enhancement, Kidneys ([2]; 45 min): 2.79
enhancement, Liver ([2]; 45 min): 1.42
enhancement, Muscle ([2]; 45 min): 1.40
enhancement, WiDr ([2]; 45 min): 1.25
enhancement, HT29 ([2]; 60 min): 1.59
enhancement, Kidneys ([2]; 60 min): 2.56
enhancement, Liver ([2]; 60 min): 1.38
enhancement, Muscle ([2]; 60 min): 1.29
enhancement, WiDr ([2]; 60 min): 1.05
enhancement, HT29 ([2]; 75 min): 1.97
enhancement, Kidneys ([2]; 75 min): 2.53
enhancement, Liver ([2]; 75 min): 1.51
enhancement, Muscle ([2]; 75 min): 1.47
enhancement, WiDr ([2]; 75 min): 1.23
maximum enhancement, liver ([2]; 75 minutes p.i.): +50%
maximum enhancement, tumor ([2]; 75 minutes p.i.): +100%
enhancement, HT29 ([2]; 90 min): 1.51
enhancement, Kidneys ([2]; 90 min): 2.40
enhancement, Liver ([2]; 90 min): 1.43
enhancement, Muscle ([2]; 90 min): 1.50
enhancement, WiDr ([2]; 90 min): 1.28
enhancement, HT29 ([2]; 120 min): 1.64
enhancement, Kidneys ([2]; 120 min): 2.15
enhancement, Liver ([2]; 120 min): 1.47
enhancement, Muscle ([2]; 120 min): 1.34
enhancement, WiDr ([2]; 120 min): 1.22
enhancement, HT29 ([2]; 24 hours): 1.05
enhancement, Kidneys ([2]; 24 hours): 1.51
enhancement, Liver ([2]; 24 hours): 1.19
enhancement, Muscle ([2]; 24 hours): 1.24
enhancement, WiDr ([2]; 24 hours): 1.64
signal intensity change, tumor ([2]; after 30 minutes): marked signal intensity increase
signal intensity change, kidneys ([2]; mouse, in vivo): stronger signal intensity change
signal intensity change, muscle ([2]; reference tissue): only a small change

N,N'-Bis[13-carboxylato-4-oxo-6,8,12-tris-(carboxylatomethyl)-3,6,9,12-tetraazatridecyl]-mesoporphyrin--IX-3,17-diamide, digadolinium complex, disodium salt [Example 2c]
time of greatest signal intensity difference [3]: 2 hours p.i. or 3 hours p.i.
enhancement, HT29 ([3]; 5 min): 171 ± 14
enhancement, Kidneys ([3]; 5 min): 169 ± 45
enhancement, Liver ([3]; 5 min): 173 ± 31
enhancement, Muscle ([3]; 5 min): 143 ± 23
enhancement, WiDr ([3]; 5 min): 165 ± 39
signal intensity change, liver tissue and both tumors ([3]; 5 minutes p.i.): marked signal intensity increase
enhancement, HT29 ([3]; 30 min): 169 ± 14
enhancement, Kidneys ([3]; 30 min): 211 ± 33
enhancement, Liver ([3]; 30 min): 157 ± 30
enhancement, Muscle ([3]; 30 min): 157 ± 29
enhancement, WiDr ([3]; 30 min): 170 ± 32
enhancement, HT29 ([3]; 60 min): 168 ± 12
enhancement, Kidneys ([3]; 60 min): 207 ± 31
enhancement, Liver ([3]; 60 min): 170 ± 16
enhancement, Muscle ([3]; 60 min): 120 ± 8
enhancement, WiDr ([3]; 60 min): 153 ± 33
enhancement, HT29 ([3]; 120 min): 178 ± 32
enhancement, Kidneys ([3]; 120 min): 191 ± 37
enhancement, Liver ([3]; 120 min): 179 ± 37
enhancement, Muscle ([3]; 120 min): 126 ± 10
enhancement, WiDr ([3]; 120 min): 153 ± 0
enhancement, HT29 ([3]; 180 min): 136 ± 23
enhancement, Kidneys ([3]; 180 min): 136 ± 25
enhancement, Liver ([3]; 180 min): 167 ± 7
enhancement, Muscle ([3]; 180 min): 112 ± 9
enhancement, WiDr ([3]; 180 min): 117 ± 33
signal intensity change, muscle ([3]; reference tissue): only a small change
signal intensity change, kidneys ([3]; up to 2 hours p.i.): even stronger signal intensity change

Zinc(II)-{N,N'-bis[11-carboxylato-2-oxo-4,7,10-tris-(carboxylatomethyl)-1,4,7,10-tetraazaundecyl]-3,8-bis-(2-(naphth-1-yl)-ethyl)-deuteroporphyrin-IX-13,17-diamide}, digadolinium complex, disodium salt [Example 18d]
tissue concentration, liver [4]: ~17 % of the administered dose per
tissue concentration, HT29 tumor ([1]; 0.5 hour p.i.): 1.48 ± 0.28 % of the administered dose per gram of tissue net weight
tissue concentration, WiDr tumor ([1]; 0.5 hour p.i.): 1.94 ± 0.78 % of the administered dose per gram of tissue net weight
tissue concentration, blood ([1]; 0.5 hour p.i.): 24.44 ± 2.32 % of the administered dose per gram of tissue net weight
tissue concentration, intestine ([1]; 0.5 hour p.i.): 4.93 ± 0.90 % of the administered dose per gram of tissue net weight
tissue concentration, kidneys ([1]; 0.5 hour p.i.): 11.74 ± 2.38 % of the administered dose per gram of tissue net weight
tissue concentration, lung ([1]; 0.5 hour p.i.): 17.70 ± 2.50 % of the administered dose per gram of tissue net weight
tissue concentration, muscle ([1]; 0.5 hour p.i.): 0.89 ± 0.17 % of the administered dose per gram of tissue net weight
tissue concentration, rest of body ([1]; 0.5 hour p.i.): 2.38 ± 0.27 % of the administered dose per gram of tissue net weight
tissue concentration, skin ([1]; 0.5 hour p.i.): 3.71 ± 0.52 % of the administered dose per gram of tissue net weight
tissue concentration, spleen ([1]; 0.5 hour p.i.): 7.52 ± 0.40 % of the administered dose per gram of tissue net weight
tissue concentration, HT29 tumor ([1]; 3 hours p.i.): 3.53 ± 0.52 % of the administered dose per gram of tissue net weight
tissue concentration, WiDr tumor ([1]; 3 hours p.i.): 4.50 ± 0.98 % of the administered dose per gram of tissue net weight
tissue concentration, blood ([1]; 3 hours p.i.): 16.95 ± 1.53 % of the administered dose per gram of tissue net weight
tissue concentration, intestine ([1]; 3 hours p.i.): 2.31 ± 0.28 % of the administered dose per gram of tissue net weight
tissue concentration, kidneys ([1]; 3 hours p.i.): 20.41 ± 1.88 % of the administered dose per gram of tissue net weight
tissue concentration, liver ([1]; 3 hours p.i.): 16.89 ± 1.15 % of the administered dose per gram of tissue net weight
tissue concentration, lung ([1]; 3 hours p.i.): 17.56 ± 3.34 % of the administered dose per gram of tissue net weight
tissue concentration, muscle ([1]; 3 hours p.i.): 1.04 ± 0.06 % of the administered dose per gram of tissue net weight
tissue concentration, rest of body ([1]; 3 hours p.i.): 2.43 ± 0.13 % of the administered dose per gram of tissue net weight
tissue concentration, skin ([1]; 3 hours p.i.): 4.46 ± 0.53 % of the administered dose per gram of tissue net weight
tissue concentration, spleen ([1]; 3 hours p.i.): 10.82 ± 0.87 % of the administered dose per gram of tissue net weight

Source: patent US5849259A, “3-,8-substituted deuteroporphyrin derivatives, pharmaceutical agents containing the latter and process for their production” (priority 1992, dated 1998)
